These results are taken from US20160067211A1, “PHARMACEUTICAL COMPOSITION” (Eberhard Karls Universitaet Tuebingen Medizinische Fakultaet, priority 2013, published 2016).

In assay [1] the test system is angiogenesis. The note with it: chorioallantois membrane assays in vivo; cited from earlier work.
Assay [2] relates to BLM melanoma cells. Nature of the assay: Organotypic human epidermal skin reconstructs, BLM. The note with it: 100 μM, 40× magnification. It counts as cell-based. The protocol:
FIG. 11: 6-PN and 8-PN reduce proliferation and invasion of BLM and LOXIMVI melanoma cells in human epidermal skin reconstructs and induce little embryo toxicity. (A) BLM melanoma cells and keratinocytes were seeded on top of a collagen matrix populated by fibroblasts. After 16 days a keratinizing stratified epithelium with a rudimentary corium is formed. […] (B) Similar results were obtained for LOXIMVI melanoma cells under the same treatment conditions. Only nests of dead, MIB1 negative LOXIMVI cells were detected after treatment with the PNs. […]
In this assay, keratinocytes and melanoma cells are seeded on top of a collagen matrix populated by fibroblasts. […] Untreated control BLM cells (depicting 70-80% proliferation, determined by MIB1 immunhistochemistry) had formed a large tumor in the epidermal part of the reconstruct and had invaded the corium (FIG. 11A, upper panel). To determine the amount of proliferating cells, the number of MIB1 positive melanoma cells per power field in the epidermal part of the reconstruct at the epidermal-dermal border was counted (40× magnification, n=5 adjacent fields examined). Further, the number of melanoma cells invading the dermal part of the reconstruct was counted in the same high power fields. In reconstructs with untreated BLM cells, 103±15 MIB1 positive cells and 39±13 invasive cells were counted (FIG. 11A, upper panel). […]

The subject of assay [3] is histon protein H3 acetylation in BLM melanoma cells. Nature of the assay: Western blot of acetylated histon H3, BLM. It counts as cell-based, human. The note with it: 100 μM, 24 hours, vs. DMSO control. The protocol:
(§1) FIG. 4: 6-PN and 8-PN induce a hyper acetylation in SK-MEL-28 melanoma cells. Western blot analysis of acetylated histon complex H3 in cellular lysates of BLM and SK-MEL-28 cells treated with 100 μM 6-PN or 8-PN for 1, 2, 4, 12 and 24 h, or with 100 μM SAHA (as reference HDACi) for 24 h. Equal protein loading was verified by vinculin staining (lower rows). At 24 hours (BLM) and 2 hours (SK-MEL-28) after the PN treatment a prominent up-regulation of ac-H3 is detectable. The protein expression levels were estimated performing a densitometric analysis.
(§2) The following antibodies were used: Anti-Vinculin and Anti-Actin (1:5000, Sigma-Aldrich), Anti-Acetyl-Histon H3 (1:5000, Millipore, Billerica, USA), Anti-Caspase-3 (1:1000), Anti-AKT, Anti-pAKT, Anti-ERK, Anti-pERK, […], Anti-p70S6 Kinase, and Anti-pS6 protein (1:1000), all from Cell Signaling, Frankfurt, Germany), Anti-LC3 (1:5000, Sigma-Aldrich).
(§3) An incubation of cells with HDACi induces generally a hyperacetylation of histon proteins. Therefore, the acetylation status of the histon protein H3 after treatment with 6-PN or 8-PN was investigated. Corresponding to the HDAC screening results, a direct effect was monitored. […] SAHA was used as control HDACi (at 100 μM, 24 hours treatment).

Assay [4] relates to estrogen receptors of the rat uterus. The note with it: cited from earlier work.
Assay [5] relates to MCF7-cells. The note with it: cited from earlier work.
Assay [6] concerns PI (3) K/Akt-signal path in MCF-7 cells. Particulars: MCF-7 cells in vitro; cited from earlier work.
In assay [7] the test system is pS6P, P70S6 kinase, pERK, caspase-3, Bcl-xl in SK-MEL-28 melanoma cells. Nature of the assay: Western blot of signalling proteins. It counts as cell-based, human. Particulars: SK-MEL-28, 100 μM. As to the method: FIG. 8: 6-PN and 8-PN decrease expression of pS6p via down regulation of pERK/pP90. Western blot analysis of SK-MEL-28 melanoma cells 1 hour, 2 hours, 4 hours, 12 hours, and 24 hours after treatment with 100 μM 6-PN or 8-PN. 6-PN and 8-PN induced down regulation of pS6p accompanied by a decrease of pERK and pP90, respectively. 6-PN and 8-PN induced time dependent increase of p70s6-kinase.
as §2
To further analyze the type of cell death induced by 6-PN and 8-PN, western blot analyses of SK-MEL-28 melanoma cells were performed 1, 2, 4, 12 and 24 hours after the treatment with 100 μM 6-PN and 8-PN. […] Upon PN treatment an inconsistent expression of oncogenic AKT and phospho-AKT (pAKT) was detected. […] Thus, there was an obvious discrepancy between the expression of pAKT and pS6P. Therefore it was first also looked for the expression of P70S6 kinase and its phosphorylated form. […] Therefore it was next asked whether the S6P could be phosphorylated by a different mechanism. In this respect, activated ERK can phosphorylate the p90 ribosomal S6 kinase (pP90). pP90 also phosphorylates the S6P (in addition to the P70S6 kinase). Since the pP70S6 kinase was absent in the used cells (SK-MEL-28 and BLM), it was hypothesized that the phosphorylation of the S6P was conducted via the pERK/pP90 pathway, independent from the P70S6 signalling. This hypothesis was supported by the parallel down-regulation of the bands for pP90 (Thr359/Ser363) and pS6P 12 hours after the treatment with 6-PN, and the reappearance of both bands after 24 hours (FIG. 8). […] The western blot experiments were repeated with BLM cells under the same treatment conditions and yielded similar results (not shown).

The subject of assay [8] is histon protein H3 acetylation in SK-MEL-28 melanoma cells. Nature of the assay: Western blot of acetylated histon H3, SK-MEL-28. It counts as cell-based, human. Particulars: SK-MEL-28, 100 μM, two hours, vs. DMSO control. The protocol:
as §1, §2, §3

Consider `CC(C)=CCc1c(O)cc(O)c2c1OC(c1ccc(O)cc1)CC2=O` (stereo not drawn) [8-PN, 5,7-Dihydroxy-2-(4-hydroxy-phenyl)-8-(3-methyl-but-2-enyl)-chroman-4-one], for which, in assay [1], the angiogenesis entry is “inhibits the angiogenesis”. Besides, the “invasive cells per high power field” value in assay [2] (untreated 39±13) came to 6±2. Moreover, the “MIB1 positive cells per high power field” value in assay [2] (untreated 103±15) is 16±4. Moreover, the “histon complex H3 acetylation” value in assay [3] and in assay [8] was “massive increase” each time. Further, the “binding affinity for estrogen receptors” value in assay [4] is reported as “strong binding affinity”. The apoptosis entry in assay [5] is given as “induces the apoptosis”. The “activation of the PI (3) K/Akt-signal path” value in assay [6] is on record as “directly inhibits”. Also, in assay [7] (1-24 hours), the “protein levels of caspase-3 and Bcl-xl” value is “decreased protein levels”. Also, in assay [7] (after 4 hours, 12 hours, and 24 hours), the “phospho-S6 protein (pS6P) expression” value is on record as “strongly down regulated”. Besides, the pERK expression result in assay [7] (after 12 hours and 24 hours) is “strong down regulation”. For the same compound, the P70S6 kinase bands entry in assay [7] (time-dependent (1-24 hours)) is recorded as “down-regulated”.
